Results reported in patent US20120196828A1, “SENSITIZATION OF CANCER CELLS TO TREATMENT” (priority 2011, published 2012).
Values joined by “and” are separate entries in the source; they are usually repeats but may differ in a detail not shown here. Identical values can stand only once.

Assays:
[1] = Body weight, deaths and clinical observations in the BxPC-3 xenograft study
Description: (§1) All experiments were conducted on female athymic nude mice (Hsd:Athymic Nude-Foxn1nu) supplied by Harlan (Indianapolis, Ind.). Mice were received at four weeks of age, 12-15 grams in weight, and were acclimated for seven days prior to handling. The mice were housed in microisolator cages (Lab Products, Seaford, Del.) and maintained under specific pathogen-free conditions. All procedures were carried out under appropriate institutional guidelines for animal care.
(§2) Seven days following inoculation, tumors were measured using calipers and tumor weight was calculated using the animal study management software, Study Director V.1.7.54 k (Study Log). See Britten C D, et al. Enhanced antitumor activity of 6-hydroxymethylacylfulvene in combination with irinotecan and 5-fluorouracil in the HT29 human colon tumor xenograft model. Cancer Res 59:1049-1053, 1999. […] Body weights were recorded when the mice were randomized and were taken twice weekly thereafter in conjunction with tumor measurements, on each of Days 1, 4, 8, 11, 15, 18, 22, 26, 30, 33, and 36.
(§3) The study was terminated when the vehicle control reached an endpoint of 1500 mg, on Day 36.

[2] = biological target: Receptor for Advanced Glycation End products (RAGE) / HMGB1 (Homo sapiens, UniProt Q15109); settings: Rao et al. 2010; WO 2009/015183; cited from earlier work
Sequence of Receptor for Advanced Glycation End products (RAGE) / HMGB1 (Q15109 23-344 limits assumed, species assumed): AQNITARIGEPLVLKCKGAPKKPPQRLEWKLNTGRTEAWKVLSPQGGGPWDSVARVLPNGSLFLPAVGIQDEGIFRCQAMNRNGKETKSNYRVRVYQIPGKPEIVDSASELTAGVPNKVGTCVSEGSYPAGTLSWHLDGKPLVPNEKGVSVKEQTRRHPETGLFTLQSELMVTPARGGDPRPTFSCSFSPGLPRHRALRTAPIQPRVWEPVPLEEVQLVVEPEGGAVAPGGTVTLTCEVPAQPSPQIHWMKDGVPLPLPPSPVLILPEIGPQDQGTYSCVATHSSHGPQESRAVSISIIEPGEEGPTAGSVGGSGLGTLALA

[3] = system: BxPC-3 Human Pancreas Tumor Xenograft; assay: BxPC-3 human pancreas tumor xenograft model: tumor weight and tumor growth inhibition; type: in vivo, mouse
Description: Compounds tested in the experiment were as follows. […] A concentration of 4.8 mg/ml was formulated to deliver a 24 mg/kg dose at a 5 ml/kg dose volume when administered subcutaneously. […] Nab-paclitaxel was manufactured by Abraxis BioScience LLC (Bridgewater, N.J.) and diluted in a 0.9% NaCl solution to a concentration of 1.5 mg/ml to deliver 15 mg/kg, in a 10 ml/kg dose volume. All standard agent preparations were made fresh prior to their administration.
BxPC-3 cells were obtained and prepared as follows. The BxPC-3 pancreas tumor cell line was received from American Type Culture Collection (ATCC, Manassas, Va.). Cultures were maintained in RPMI 1640 medium (Hyclone, Logan, Utah) supplemented with 5% fetal bovine serum. The cells were housed in a 5% CO2 atmosphere. The cultures were expanded in tissue culture flasks at a 1:3 split ratio until a sufficient amount of cells were harvested.
as §1
BxPC-3 Human Pancreas Tumor Xenograft Model: Female athymic nude mice per treatment condition were inoculated subcutaneously in the right flank with 0.1 ml of a 50% RPMI 1640/50% Matrigel™ (BD Biosciences, Bedford, Mass.) mixture containing a suspension of BxPC-3 tumor cells (approximately 5×10^6 cells/mouse).
as §2, §3
Mean tumor growth inhibition (TGI) was calculated utilizing Formula A below (deaths were not included in the TGI calculations).
All statistical analyses in the xenograft study were performed with GraphPad Prism® v4 software.

[4] = system: metastatic gastric cancer; settings: patients with metastatic gastric cancer; ODSH with mDCF
Description: Subjects included in the trial are: patients diagnosed with metastatic gastric, including cancer at the gastroesophageal junction. […] Subjects in each arm of the trial are evaluated for time to tumor progression, weight loss, pain control, six-month survival rates, and overall survival.

[5] = system: metastatic pancreatic cancer; settings: patients with metastatic pancreatic cancer; ODSH 4 mg/kg bolus then 0.375 mg/kg/hr infusion
Description: Subjects included in the trial are: patients diagnosed with metastatic pancreatic cancer. […] See also, Burris, H. A., et al., 1997, J. Clin. Oncol. 15(6):2403-13. […] J. Clin. Oncol. 30(1):15-20. Subjects in each arm of the trial are evaluated for time to tumor progression, weight loss, pain control, six-month survival rates, and overall survival.
Subjects included in the trial are: patients diagnosed with metastatic pancreatic cancer.
Next, 50 subjects are then randomly assigned to one of two arms: either a control or a treatment group.

anti-thrombin III = anti-thrombin III (Homo sapiens, UniProt P01008); settings: cited from earlier work
Sequence of anti-thrombin III (P01008 33-464, species assumed): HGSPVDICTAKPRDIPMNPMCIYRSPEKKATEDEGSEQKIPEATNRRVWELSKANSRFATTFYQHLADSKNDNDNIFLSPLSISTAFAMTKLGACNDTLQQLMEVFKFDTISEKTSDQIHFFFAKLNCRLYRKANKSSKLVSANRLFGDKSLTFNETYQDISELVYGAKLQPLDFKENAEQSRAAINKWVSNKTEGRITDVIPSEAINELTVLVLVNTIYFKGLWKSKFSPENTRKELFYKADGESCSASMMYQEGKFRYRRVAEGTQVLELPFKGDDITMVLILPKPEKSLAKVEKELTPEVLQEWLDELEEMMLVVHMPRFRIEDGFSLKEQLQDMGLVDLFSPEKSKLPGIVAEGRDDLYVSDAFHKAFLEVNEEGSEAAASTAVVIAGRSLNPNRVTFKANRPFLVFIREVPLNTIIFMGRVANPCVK

[6] = ANOVA with Tukey's Multiple Comparison Test

2-O, 3-O desulfated heparin [ODSH]
Day 1 Average Weight ([1]; Day 1): 21.54 g
Day 4 Average Weight ([1]; Day 4): 21.18 g
Day 4 % Weight Loss or Gain ([1]; Day 4, vs starting weight): −1.67%
Day 8 Average Weight ([1]; Day 8): 21.18 g
Day 8 % Weight Loss or Gain ([1]; Day 8, vs starting weight): −1.67%
Day 11 Average Weight ([1]; Day 11): 20.95 g
Day 11 % Weight Loss or Gain ([1]; Day 11, vs starting weight): −2.74%
Day 15 Average Weight ([1]; Day 15): 21.08 g
Day 15 % Weight Loss or Gain ([1]; Day 15, vs starting weight): −2.14%
Day 18 Average Weight ([1]; Day 18): 21.04 g
Day 18 % Weight Loss or Gain ([1]; Day 18, vs starting weight): −2.32%
Day 22 Average Weight ([1]; Day 22): 22.53 g
Day 22 Average Weight ([1]; Day 22 (Table 12)): 21.56 g
Day 22 % Weight Loss or Gain ([1]; Day 22 (Table 12), vs starting weight): 0.09%
Day 22 % Weight Loss or Gain ([1]; Day 22, vs starting weight): 4.60%
Day 26 Average Weight ([1]; Day 26 (Table 12)): 22.14 g
Day 26 % Weight Loss or Gain ([1]; Day 26 (Table 12), vs starting weight): 2.79%
Day 30 % Weight Loss or Gain ([1]; Day 30, vs starting weight, groups 3 and 5 switched regimen from Day 26): 4.92%
Day 30 Average Weight ([1]; Day 30, groups 3 and 5 switched to gemcitabine + nab-paclitaxel regimen from Day 26): 22.60 g
Day 26 Average Weight ([1]; Table 13 Day 26): 22.46 g
Day 26 % Weight Loss or Gain ([1]; Table 13 Day 26, vs starting weight): 4.27%
Tolerability / toxicity of the regimen ([1]; athymic nude mice, dosing per Table 1): well-tolerated
Starting Weight ([1]; baseline body weight, female athymic nude mice, BxPC-3 xenograft study): 21.54 g
Maximum weight loss ([1]; body weight of mice): 2.7%
Day bruising of the abdomens was first observed ([1]; mouse, in vivo): 15 days
Day bruising of the tails was first observed ([1]; mouse, in vivo): 8 days
Day by which the mice recovered their weight ([1]; mouse, in vivo): ≤ 22 days
Day on which maximum weight loss was reached ([1]; mouse, in vivo): 11 days
Day swelling of the tail was first observed ([1]; mouse, in vivo): 11 days
Mice demonstrating bruising on the tails or abdomen (site of injection) ([1]; of ten mice): All ten
Mice demonstrating swelling of the tail ([1]; of ten mice): One of the ten
Deaths ([1]; total deaths on or before Day 26, N = 10 per group): 0
Deaths ([1]; total deaths on or before Day 36, n = 10 per group): 0
Binding of RAGE by HMGB1 and other RAGE ligands [2]: inhibit binding
Difference in tumor weight on Day 26 compared to vehicle control [3, 6]: No significant difference
Difference in tumor weight on Day 36 compared to vehicle control [3, 6]: No significant difference
Mean tumor weight, Day 1 ([3]; Day 1 (randomization), group mean, dosing per Table 1): 122.4 mg
Median tumor weight, Day 1 ([3]; Day 1 (randomization), group median, dosing per Table 1): 22.9 mg
Tumor weight, individual mouse, Day 1 ([3]; Day 1 (randomization), individual mouse, dosing per Table 1 (ODSH 24, oxaliplatin 10, gemcitabine 80, nab-paclitaxel 15 mg/kg)): 140 mg and 116 mg and 172 mg and 94 mg and 131 mg and 106 mg and 125 mg and 143 mg and 129 mg
Mean tumor weight, Day 4 ([3]; Day 4, group mean, dosing per Table 1): 134.0 mg
Median tumor weight, Day 4 ([3]; Day 4, group median, dosing per Table 1): 28.6 mg
Tumor weight, individual mouse, Day 4 ([3]; Day 4, individual mouse, dosing per Table 1): 162 mg and 98 mg and 110 mg and 141 mg and 97 mg and 181 mg and 135 mg and 130 mg and 144 mg and 133 mg
Mean tumor weight, Day 8 ([3]; Day 8, group mean, dosing per Table 1): 146.0 mg
Median tumor weight, Day 8 ([3]; Day 8, group median, dosing per Table 1): 40.4 mg
Tumor weight, individual mouse, Day 8 ([3]; Day 8, individual mouse, dosing per Table 1): 218 mg and 118 mg and 144 mg and 183 mg and 125 mg and 222 mg and 126 mg and 155 mg and 157 mg and 148 mg
Mean tumor weight, Day 11 ([3]; Day 11, group mean, dosing per Table 1): 187.6 mg
Median tumor weight, Day 11 ([3]; Day 11, group median, dosing per Table 1): 162.1 mg
Tumor weight, individual mouse, Day 11 ([3]; Day 11, individual mouse, dosing per Table 1): 149 mg and 288 mg and 142 mg and 175 mg and 243 mg and 146 mg and 252 mg and 137 mg and 140 mg and 203 mg
Mean tumor weight, Day 15 ([3]; Day 15, group mean, dosing per Table 1): 263.0 mg
Median tumor weight, Day 15 ([3]; Day 15, group median, dosing per Table 1): 250.0 mg
Tumor weight, individual mouse, Day 15 ([3]; Day 15, individual mouse, dosing per Table 1): 206 mg and 340 mg and 224 mg and 263 mg and 348 mg and 237 mg and 321 mg and 208 mg and 218 mg and 264 mg
Mean tumor weight, Day 18 ([3]; Day 18, group mean, dosing per Table 1): 338.5 mg
Median tumor weight, Day 18 ([3]; Day 18, group median, dosing per Table 1): 304.7 mg
Tumor weight, individual mouse, Day 18 ([3]; Day 18, individual mouse, dosing per Table 1): 278 mg (2×) and 489 mg and 291 mg and 288 mg and 419 mg and 256 mg and 415 mg and 318 mg and 352 mg
Mean tumor weight, Day 22 ([3]; Day 22, group mean, dosing per Table 1): 453.8 mg
Median tumor weight, Day 22 ([3]; Day 22, group median, dosing per Table 1): 425.4 mg
Tumor weight, individual mouse, Day 22 ([3]; Day 22, individual mouse, dosing per Table 1): 358 mg and 622 mg and 360 mg and 400 mg and 556 mg and 402 mg and 551 mg and 449 mg and 326 mg and 515 mg
Mean tumor weight, Day 26 ([3]; Day 26, group mean, dosing per Table 1): 616.2 mg
Median tumor weight, Day 26 ([3]; Day 26, group median, dosing per Table 1): 551.3 mg
Tumor weight, individual mouse, Day 26 ([3]; Day 26, individual mouse, dosing per Table 1): 509 mg and 894 mg and 478 mg and 529 mg and 770 mg and 573 mg and 724 mg and 524 mg and 394 mg and 766 mg
Day 26 Tumor Weight ([3]; Day 26, mean ± Std Err, treatment administered until Day 26): 616.2 ± 50.9 mg
Day 26 % TGI ([3]; Day 26 vs Day 1, relative to vehicle control (Group 1), deaths not included): 11.5% and 11.5 (10/10) %
Mean tumor weight, Day 30 ([3]; Day 30, group mean of surviving mice, dosing per Table 1): 882.3 mg
Median tumor weight, Day 30 ([3]; Day 30, group median, dosing per Table 1): 856.4 mg
Tumor weight, individual mouse, Day 30 ([3]; Day 30, individual mouse, dosing per Table 1): 697 mg and 1,083 mg and 756 mg and 893 mg and 1,201 mg and 820 mg and 945 mg and 764 mg and 555 mg and 1,109 mg
Mean tumor weight, Day 33 ([3]; Day 33, group mean of surviving mice, dosing per Table 1): 1,038.6 mg
Median tumor weight, Day 33 ([3]; Day 33, group median, dosing per Table 1): 979.8 mg
Tumor weight, individual mouse, Day 33 ([3]; Day 33, individual mouse, dosing per Table 1): 908 mg and 1,218 mg and 999 mg and 961 mg (2×) and 1,309 mg and 1,087 mg and 871 mg and 733 mg and 1,340 mg
Day 36 Tumor Weight ([3]; Day 36, treatment administered until Day 35): 1270.1 ± 95.5 mg
Median tumor weight, Day 36 ([3]; Day 36, group median, dosing per Table 1): 1,151.5 mg
Tumor weight, individual mouse, Day 36 ([3]; Day 36, individual mouse, dosing per Table 1): 1,072 mg and 1,450 mg and 1,153 mg and 1,150 mg (2×) and 1,654 mg and 1,376 mg and 1,037 mg and 836 mg and 1,823 mg
Day 36 % TGI ([3]; Day 36 vs Day 1, relative to vehicle control (Group 1), deaths not included): 18.2%
Overall antitumor effect (summary statement) ([3]; xenograft model of human pancreatic cancer): inhibits tumor growth to a similar extent as treatment with gemcitabine
Therapeutic benefit of addition of ODSH to chemotherapy in gastric cancer [4]: therapeutic benefit
Therapeutic benefit of addition of ODSH to chemotherapy in pancreatic cancer [5]: therapeutic benefit
Kd (anti-thrombin III): ~339 µM
Kd for anti-thrombin III (anti-thrombin III): ~4000 µg/mL
